Test results taken from patent US20250368627A1, “PYRAZOLESULFONAMIDES AS ANTITUMOR AGENTS” (Peloton Therapeutics, Inc., a fully owned subsidiary of …, priority 2019, published 2025).

Tests used:
[1] = target: T1, DDB1DB/DCAF15 and RBM39 R1R2 complex (Homo sapiens, UniProt Q14498+Q66K64); assay: DCAF15 RBM39 Complex Formation Assay (FRET); format: binding; settings: FRET ratio Em 665/Em 615, incubated overnight at 4° C.
T1 construct: Amino acids 150 to 331 of RBM39 were cloned into pGEX4T3; GST (from vector pGEX4T3); TEV cleavage site (N); made in house; host or cells: DDB1DB/His-DCAF15: baculovirus/Sf9 co-expression; RBM39 R1R2: E. coli (pGEX4T3)
T1 sequence (Q66K64 whole entry, the tested form may be a part): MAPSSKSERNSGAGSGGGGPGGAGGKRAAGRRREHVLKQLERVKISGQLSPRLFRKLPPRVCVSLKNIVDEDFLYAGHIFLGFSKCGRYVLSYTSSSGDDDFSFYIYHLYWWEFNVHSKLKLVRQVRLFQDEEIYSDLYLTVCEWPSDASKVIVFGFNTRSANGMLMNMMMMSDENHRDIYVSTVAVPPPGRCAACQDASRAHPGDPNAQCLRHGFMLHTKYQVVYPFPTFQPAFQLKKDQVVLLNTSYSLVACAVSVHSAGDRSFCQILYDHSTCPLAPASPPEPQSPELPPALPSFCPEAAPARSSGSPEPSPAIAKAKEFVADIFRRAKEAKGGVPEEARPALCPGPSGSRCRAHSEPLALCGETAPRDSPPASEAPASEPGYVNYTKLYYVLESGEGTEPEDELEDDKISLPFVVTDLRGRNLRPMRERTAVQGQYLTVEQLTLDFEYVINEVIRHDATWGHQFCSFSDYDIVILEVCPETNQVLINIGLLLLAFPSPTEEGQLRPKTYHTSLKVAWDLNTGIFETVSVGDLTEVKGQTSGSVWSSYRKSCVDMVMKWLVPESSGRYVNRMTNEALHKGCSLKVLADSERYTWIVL
T1 sequence (Q14498 150-331): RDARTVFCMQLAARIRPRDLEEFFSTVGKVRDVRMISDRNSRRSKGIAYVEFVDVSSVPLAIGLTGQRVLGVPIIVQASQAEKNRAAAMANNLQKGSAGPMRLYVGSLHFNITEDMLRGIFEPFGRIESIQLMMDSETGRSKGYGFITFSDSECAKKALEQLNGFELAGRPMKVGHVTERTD
T1 sequence (Q16531 with tags, fused parts or gaps DEL396-708 partner): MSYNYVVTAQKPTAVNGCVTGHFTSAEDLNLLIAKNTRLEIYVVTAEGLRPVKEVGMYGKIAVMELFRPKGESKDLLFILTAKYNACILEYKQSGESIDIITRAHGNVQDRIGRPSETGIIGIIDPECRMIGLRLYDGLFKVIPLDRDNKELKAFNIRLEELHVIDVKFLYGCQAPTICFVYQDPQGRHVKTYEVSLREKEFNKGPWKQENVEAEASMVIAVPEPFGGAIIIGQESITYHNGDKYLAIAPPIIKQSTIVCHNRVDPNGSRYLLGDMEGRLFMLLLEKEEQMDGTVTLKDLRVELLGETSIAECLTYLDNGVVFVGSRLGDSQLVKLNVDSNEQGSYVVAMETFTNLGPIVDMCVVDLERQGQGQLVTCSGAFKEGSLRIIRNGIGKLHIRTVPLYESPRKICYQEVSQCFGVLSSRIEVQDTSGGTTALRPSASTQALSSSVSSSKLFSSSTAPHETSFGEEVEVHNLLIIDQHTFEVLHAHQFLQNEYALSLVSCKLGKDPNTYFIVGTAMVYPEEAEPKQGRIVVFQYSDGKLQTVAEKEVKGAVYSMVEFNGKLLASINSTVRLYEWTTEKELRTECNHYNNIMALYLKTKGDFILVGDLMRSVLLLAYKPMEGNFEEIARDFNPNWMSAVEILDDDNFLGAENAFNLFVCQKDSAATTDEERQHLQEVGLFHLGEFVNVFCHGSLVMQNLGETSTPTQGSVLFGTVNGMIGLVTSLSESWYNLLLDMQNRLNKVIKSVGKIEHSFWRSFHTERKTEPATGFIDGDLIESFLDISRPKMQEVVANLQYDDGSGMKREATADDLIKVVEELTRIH
How it was run: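 Ternary complex formation read by TR-FRET (Em 665/615, excitation 340 nm) after overnight incubation at 4° C of 20 nM baculovirus DDB1DB/His-DCAF15 and 50 nM E. coli RBM39 RRM1-RRM2 FLAG fragment with 14-point, 3-fold compound dilutions from 1 μM; EC50 from 4-parameter fit.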

[2] = system: HCT116 human colorectal carcinoma cells; assay: CellTiter-Glo Luminescent Cell Viability Assay; format: cell-based; settings: HCT-116, 72 h, 3 days
How it was run: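 CellTiter-Glo luminescence gave viability after 3 days of compound exposure in HCT116 cells grown in DMEM/10% FBS. Final concentrations ran from 5 to 0.0002 […] in 1:3 steps, each in triplicate, with IC50 derived from the curves.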

| SMILES | IC50 [1] [nM] | EC50 [2] [nM] |
| --- | --- | --- |
| Cc1ccc(NS(=O)(=O)c2cnn([C@H](C)CF)c2)c2[nH]cc(C#N)c12 [Compound 281, N-(3-cyano-4-methyl-1H-indol-7-yl)-1-[(1R)-2-fluoro-1-methyl-ethyl]pyrazole-4-sulfonamide] | < 250 | < 250 |
| Cc1nn(C)cc1S(=O)(=O)Nc1ccc(C)c2c(C#N)c[nH]c12 [Compound 114, N-(3-cyano-4-methyl-1H-indol-7-yl)-1,3-dimethyl-pyrazole-4-sulfonamide] | < 250 | 250 to 1000 |
| N#Cc1c[nH]c2c(NS(=O)(=O)c3cnn(C(F)F)c3)ccc(F)c12 [Compound 215, N-(3-cyano-4-fluoro-1H-indol-7-yl)-1-(difluoromethyl)pyrazole-4-sulfonamide] | < 250 | 250 to 1000 |
| CC1(Cn2cc(S(=O)(=O)Nc3cccc4c(Cl)c[nH]c34)cn2)CSC1 [Compound 44, N-(3-chloro-1H-indol-7-yl)-1-[(3-methylthietan-3-yl)methyl]pyrazole-4-sulfonamide] | < 250 | > 1000 |
| CC(C)(C)OC(=O)NCCn1cc(S(=O)(=O)Nc2cccc3c(Cl)c[nH]c23)cn1 [Compound 33, tert-butyl N-[2-[4-[(3-chloro-1H-indol-7-yl)sulfamoyl]pyrazol-1-yl]ethyl]carbamate] | 250 to 1000 | > 1000 |
| Cc1ccc(NS(=O)(=O)c2cnn(CC3(CO)COC3)c2)c2[nH]cc(C#N)c12 [Compound 106, N-(3-cyano-4-methyl-1H-indol-7-yl)-1-[[3-(hydroxymethyl)oxetan-3-yl]methyl]pyrazole-4-sulfonamide] | < 250 | 250 to 1000 |
| COC(=O)Cn1cc(S(=O)(=O)Nc2ccc(C)c3c(C#N)c[nH]c23)cn1 [Compound 133, methyl 2-[4-[(3-cyano-4-methyl-1H-indol-7-yl)sulfamoyl]pyrazol-1-yl]acetate] | < 250 | > 1000 |
| CC(C)(CO)n1ncc(S(=O)(=O)Nc2ccc(Cl)c3c(C#N)c[nH]c23)c1Cl [Compound 250, 5-chloro-N-(4-chloro-3-cyano-1H-indol-7-yl)-1-(2-hydroxy-1,1-dimethyl-ethyl)pyrazole-4-sulfonamide] | < 250 | < 250 |
| O=S(=O)(Nc1cccc2c(Cl)c[nH]c12)c1cnn(C2COC2)c1 [Compound 40, N-(3-chloro-1H-indol-7-yl)-1-(oxetan-3-yl)pyrazole-4-sulfonamide] | < 250 | 250 to 1000 |
| Cc1ccc(NS(=O)(=O)c2cnn(C(C)C)c2)c2[nH]cc(C#N)c12 [Compound 63, N-(3-cyano-4-methyl-1H-indol-7-yl)-1-isopropyl-pyrazole-4-sulfonamide] | < 250 | 250 to 1000 |
| O=S(=O)(Nc1cccc2c(Cl)c[nH]c12)c1cnn(CCO)c1 [Compound 13, N-(3-chloro-1H-indol-7-yl)-1-(2-hydroxyethyl)pyrazole-4-sulfonamide] | < 250 | 250 to 1000 |
| C[C@H](CO)n1cc(S(=O)(=O)Nc2ccc(F)c3c(C#N)c[nH]c23)cn1 [Compound 212, (R)—N-(3-cyano-4-fluoro-1H-indol-7-yl)-1-(1-hydroxypropan-2-yl)-1H-pyrazole-4-sulfonamide] | < 250 | 250 to 1000 |
| Cc1ccc(NS(=O)(=O)c2cn(C(C)(C)CO)nc2Cl)c2[nH]cc(C#N)c12 [Compound 252, 3-chloro-N-(3-cyano-4-methyl-1H-indol-7-yl)-1-(2-hydroxy-1,1-dimethyl-ethyl)pyrazole-4-sulfonamide] | < 250 | 250 to 1000 |
| Cc1ccc(NS(=O)(=O)c2cnn(S(=O)(=O)CF)c2)c2[nH]cc(C#N)c12 [Compound 100, N-(3-cyano-4-methyl-1H-indol-7-yl)-1-(fluoromethylsulfonyl)pyrazole-4-sulfonamide] | < 250 | 250 to 1000 |
| Cc1ccc(NS(=O)(=O)c2cnn(CC3CC3)c2)c2[nH]cc(C#N)c12 [Compound 69, N-(3-cyano-4-methyl-1H-indol-7-yl)-1-(cyclopropylmethyl)pyrazole-4-sulfonamide] | < 250 | < 250 |
| CS(=O)(=O)Cn1cc(S(=O)(=O)Nc2ccc(Cl)c3c(Cl)c[nH]c23)cn1 [Compound 181, N-(3,4-dichloro-1H-indol-7-yl)-1-(methylsulfonylmethyl)pyrazole-4-sulfonamide] | < 250 | < 250 |
| N#Cc1c[nH]c2c(NS(=O)(=O)c3cnn(CCCO)c3)ccc(Cl)c12 [Compound 209, N-(4-chloro-3-cyano-1H-indol-7-yl)-1-(3-hydroxypropyl)-1H-pyrazole-4-sulfonamide] | < 250 | 250 to 1000 |
| N#Cc1c[nH]c2c(NS(=O)(=O)c3cn[nH]c3)ccc(F)c12 [Compound 214, N-(3-cyano-4-fluoro-1H-indol-7-yl)-1H-pyrazole-4-sulfonamide] | < 250 | > 1000 |

| SMILES | IC50 [1] [nM] | EC50 [2] [nM] |
| --- | --- | --- |
| Cc1ccc(NS(=O)(=O)c2cnn(C)c2Cl)c2[nH]cc(C#N)c12 [Compound 155, 5-chloro-N-(3-cyano-4-methyl-1H-indol-7-yl)-1-methyl-pyrazole-4-sulfonamide] | < 250 | < 250 |
| CC(C)(O)CCn1cc(S(=O)(=O)Nc2ccc(Cl)c3c(C#N)c[nH]c23)cn1 [Compound 220, N-(4-chloro-3-cyano-1H-indol-7-yl)-1-(3-hydroxy-3-methyl-butyl)pyrazole-4-sulfonamide] | < 250 | 250 to 1000 |
| C[C@@H](O)[C@H](C)n1cc(S(=O)(=O)Nc2ccc(F)c3c(C#N)c[nH]c23)cn1 [Compound 233, N-(3-cyano-4-fluoro-1H-indol-7-yl)-1-[(1S,2R)-2-hydroxy-1-methyl-propyl]pyrazole-4-sulfonamide] | < 250 | 250 to 1000 |
| O=S(=O)(Nc1cccc2c(Cl)c[nH]c12)c1cnn(C2CCNCC2)c1 [Compound 41, N-(3-chloro-1H-indol-7-yl)-1-(4-piperidyl)pyrazole-4-sulfonamide] | 250 to 1000 | > 1000 |
| Cn1cc(S(=O)(=O)Nc2ccc(C(F)(F)F)c3c(Cl)c[nH]c23)cn1 [Compound 97, N-[3-chloro-4-(trifluoromethyl)-1H-indol-7-yl]-1-methyl-pyrazole-4-sulfonamide] | < 250 | > 1000 |
| COCC(CO)n1cc(S(=O)(=O)Nc2ccc(C)c3c(C#N)c[nH]c23)cn1 (stereo not shown) [Compound 263, N-(3-cyano-4-methyl-1H-indol-7-yl)-1-[1-(hydroxymethyl)-2-methoxy-ethyl]pyrazole-4-sulfonamide] | < 250 | 250 to 1000 |
| N#CCn1cc(S(=O)(=O)Nc2cccc3c(Cl)c[nH]c23)cn1 [Compound 14, N-(3-chloro-1H-indol-7-yl)-1-(cyanomethyl)pyrazole-4-sulfonamide] | < 250 | > 1000 |
| Cc1ccc(NS(=O)(=O)c2cnn(CF)c2N)c2[nH]cc(C#N)c12 [Compound 308, 5-amino-N-(3-cyano-4-methyl-1H-indol-7-yl)-1-(fluoromethyl)pyrazole-4-sulfonamide] | < 250 | 250 to 1000 |
| Cc1ccc(NS(=O)(=O)c2cnn(C3CC(F)(F)C3)c2)c2[nH]cc(C#N)c12 [Compound 109, N-(3-cyano-4-methyl-1H-indol-7-yl)-1-(3,3-difluorocyclobutyl)pyrazole-4-sulfonamide] | < 250 | 250 to 1000 |
| Cc1ccc(NS(=O)(=O)c2cnn(C(C)(C)CCO)c2)c2[nH]cc(C#N)c12 [Compound 229, N-(3-cyano-4-methyl-1H-indol-7-yl)-1-(4-hydroxy-2-methylbutan-2-yl)-1H-pyrazole-4-sulfonamide] | < 250 | < 250 |
| Cc1ccc(NS(=O)(=O)c2cnn(C3CCN(CC(F)(F)F)CC3)c2)c2[nH]cc(C#N)c12 [Compound 87, N-(3-cyano-4-methyl-1H-indol-7-yl)-1-[1-(2,2,2-trifluoroethyl)-4-piperidyl]pyrazole-4-sulfonamide] | < 250 | > 1000 |
| COCCOCCn1cc(S(=O)(=O)Nc2cccc3c(Cl)c[nH]c23)cn1 [Compound 23, N-(3-chloro-1H-indol-7-yl)-1-[2-(2-methoxyethoxy)ethyl]pyrazole-4-sulfonamide] | < 250 | > 1000 |
| CC(C)(CCO)n1cc(S(=O)(=O)Nc2ccc(Cl)c3c(C#N)c[nH]c23)cn1 [Compound 230, N-(4-chloro-3-cyano-1H-indol-7-yl)-1-(3-hydroxy-1,1-dimethyl-propyl)pyrazole-4-sulfonamide] | < 250 | < 250 |
| N#Cc1c[nH]c2c(NS(=O)(=O)c3cnn(CC(F)F)c3N)ccc(F)c12 [Compound 279, 5-amino-N-(4-cyano-4-fluoro-1H-indol-7-yl)-1-(2,2-difluoroethyl)pyrazole-4-sulfonamide] | < 250 | 250 to 1000 |
| CCn1cc(S(=O)(=O)Nc2ccc(C)c3c(C#N)c[nH]c23)c(N)n1 [Compound 290, 3-amino-N-(3-cyano-4-methyl-1H-indol-7-yl)-1-ethyl-pyrazole-4-sulfonamide] | < 250 | < 250 |
| Cc1ccc(NS(=O)(=O)c2cnn(CCCF)c2)c2[nH]cc(C#N)c12 [Compound 73, N-(3-cyano-4-methyl-1H-indol-7-yl)-1-(3-fluoropropyl)pyrazole-4-sulfonamide] | < 250 | < 250 |
| N#Cc1c[nH]c2c(NS(=O)(=O)c3cnn(C4(CO)CCC4)c3)ccc(Cl)c12 [Compound 191, N-(4-chloro-3-cyano-1H-indol-7-yl)-1-[1-(hydroxymethyl)cyclobutyl]pyrazole-4-sulfonamide] | < 250 | < 250 |
